Laboratory results taken from patent US20110091728A1, “Felbamate With Improved Bulk Density” (priority 2007, published 2011).

Assays:
[1] = Bulk density determination of felbamate (10 ml graduated cylinder, 50 taps); format: physicochemical
Text: One important characteristic is tapped bulk density, or simply tapped (or tap) density, that is the maximum packing density of a powder (or blend of powders) achieved under the influence of well defined, externally applied forces (see, http://en.wikipedia.org/wiki/Bulk_density). The minimum packed volume thus achieved depends on a number of factors including particle size distribution, true density, particle shape and cohesiveness due to surface forces including moisture. Therefore, the tap density of a material can be used to predict both its flow properties and its compressibility. These two parameters are important in the overall tabletting process, which requires that loose powders be compacted into a durable solid form with the correct mechanical strength, porosity and dissolution characteristics. These parameters are also important in the formation of oral suspensions, which ideally contain particles of high bulk density, enabling even dispersion of the particles throughout the suspension after shaking and before consumption.
Felbamate (1.211 gm) purified by the above process (Example 3) was poured into a 10 ml graduated cylinder. The untapped volume of felbamate was 3.5 ml, resulting in an untapped bulk density of 0.35 gm/ml which was greater than the untapped bulk density of felbamate prepared by other methods (see below, Examples 9 and 10). The graduated cylinder was tapped until the felbamate (50 taps) no longer settled. The volume of felbamate after tapping was 2.2 ml, resulting in a tapped bulk density of 0.55 gm/ml.
Felbamate (0.972 gm) synthesized by the process disclosed in WO 94/06737 was poured into a 10 ml graduated cylinder. The untapped volume of felbamate was 5.1 ml, resulting in an untapped bulk density of 0.19 gm/ml. The graduated cylinder was tapped until the felbamate (50 taps) no longer settled. The volume of felbamate after tapping was 3.2 ml, resulting in a tapped bulk density of 0.30 gm/ml.
Felbamate (2 gm) synthesized by the process disclosed in U.S. Pat. No. 4,868,327 was purified by adding to 20 ml of methanol, heating the methanol to reflux to obtain a clear solution, cooling the solution to room temperature over three hours with stirring, and isolating the felbamate by filtration and drying under vacuum at 50° C. Felbamate (0.927 gm) purified by this process was poured into a 10 ml graduated cylinder. The untapped volume of felbamate was 6.5 ml, resulting in an untapped bulk density of 0.14 gm/ml. The graduated cylinder was tapped until the felbamate (50 taps) no longer settled. The volume of felbamate after tapping was 2.9 ml, resulting in a tapped bulk density of 0.32 gm/ml.

[2] = as above; format: physicochemical; remark: listed apart in the source

- untapped bulk density ([1]; Table I, U.S. Pat. No. 4,868,327): 0.14 g/mL
- tapped bulk density ([1]; Table I, U.S. Pat. No. 4,868,327, 50 taps): 0.32 g/mL
- untapped bulk density ([1]; Table I, WO 94/06737): 0.19 g/mL
- tapped bulk density ([1]; Table I, WO 94/06737, 50 taps): 0.3 g/mL
- untapped bulk density ([1]; Table I, purification process as disclosed in Example 3): 0.35 g/mL
- tapped bulk density ([1]; Table I, purification process as disclosed in Example 3, 50 taps): 0.55 g/mL
- untapped bulk density ([1]; felbamate by process of U.S. Pat. No. 4,868,327, recrystallised from methanol (Example 10)): 0.14 gm/ml
- tapped bulk density ([1]; felbamate by process of U.S. Pat. No. 4,868,327, recrystallised from methanol, 50 taps (Example 10)): 0.32 gm/ml
- untapped bulk density ([1]; felbamate purified by process of Example 3, 1.211 gm in 10 ml cylinder (Example 8)): 0.35 gm/ml
- tapped bulk density ([1]; felbamate purified by process of Example 3, 50 taps (Example 8)): 0.55 gm/ml
- tapped bulk density ([1]; felbamate purified from methanol-water (Example 3)): 0.5 gm/ml
- tapped bulk density ([1]; felbamate purified from tetrahydrofuran-water (Example 5)): 0.4 gm/ml
- untapped bulk density ([1]; felbamate synthesized by process of WO 94/06737 (Example 9)): 0.19 gm/ml
- tapped bulk density ([1]; felbamate synthesized by process of WO 94/06737, 50 taps (Example 9)): 0.30 gm/ml
- tapped bulk density ([2]; felbamate purified from acetonitrile-water (Example 4)): 0.55 gm/ml
- tapped bulk density ([2]; felbamate purified from isopropanol-water (Example 6)): 0.54 gm/ml
- tapped bulk density ([2]; felbamate purified from water (Example 7)): 0.35 gm/ml
SMILES: NC(=O)OCC(COC(N)=O)c1ccccc1 [Felbamate, 2-phenyl-1,3-propanediol dicarbamate]
